Results published in patent US20180360803A1, “PHARMACEUTICAL COMPOSITION FOR TREATMENT OR PREVENTION OF NASH” (UBE INDUSTRIES, LTD., priority 2015, published 2018).
pIC50: −log10 of the molar value.

What was measured:
STAM mice (NASH models) = assay: Non-alcoholic steatohepatitis (NASH) mouse models (STAM mice); format: in vivo; conditions: for NAFLD Activity score, compound administered group: 30 mg/kg twice daily orally for 3 weeks, age of six to nine weeks; for reduction in NAFLD activity score (statistical significance): versus vehicle group
Protocol: STAM (registered trademark) mice (Stelic Institute & Co., Inc.) were used as NASH models. The STAM (registered trademark) mice were prepared by subcutaneously administering 200 μg of streptozotocin (Sigma Aldrich) one time to the back of 2-day old male mice and feeding the mice with a high fat diet (High Fat Diet 32, CLEA Japan, Inc.) from the age of 4 weeks (Medical Molecular Morphology, 46 (2013) pp. 141-152).
The test compound was orally administered every day from the age of 5 or 6 weeks. At the age of 9 or 10 weeks, bloods and livers were collected under anesthesia. The bloods were subjected to biochemical tests. After the wet weights of the livers were measured, RNA was extracted from portions of the livers, and the expression levels of the inflammation and fibrosis marker genes were measured by the quantitative PCR method. Further, the amounts of hydroxyproline or collagen in the livers were measured. Paraffin sections or frozen sections were prepared from portions of the livers and were subjected to histopathological tests to determine the NAFLD activity scores, the fibrosis areas or the inflammation areas. The results were statistically analyzed using EXSUS (CAC EXICARE CORPORATION) or Prism 4 (GraphPad Software, Inc.).

human LPA1 = biological target: T1, human LPA1 (Homo sapiens, UniProt Q92633); assay: Test of LPA1 antagonism ([35S]GTPγS binding, membrane fraction of RH 7777 cells expressing human LPA1); format: biochemical; conditions: LPA 100 nM, read-out: IC50, concentration required for 50% inhibition of the binding of LPA1 and [35S]GTPγS
T1 construct: purchased ChanTest A324; host or cells: RH 7777 cells (recombinant expression of human LPA1)
Protocol: 5 μg of a membrane fraction of RH 7777 cells expressing human LPA1 (A324, ChanTest) was suspended in a reaction buffer (20 mM HEPES, 100 mM NaCl, 10 mM MgCl2, 10 μM GDP, 5 μg saponin, 0.2% BSA, 0.1 nM [^35S]GTPγS (NEG030X, Perkin Elmer), pH 7.4). The test compounds dissolved in DMSO in various concentrations were each added to the suspension. After preincubation at 30° C. for 15 minutes, LPA (L7260, Sigma, final concentration 100 nM) was added, and the suspensions were incubated at 30° C. for 30 minutes. The membrane fractions were collected on a glass fiber filter (GF/B, Whatman) by using a cell harvester (M30, Brandel), and were washed with a 10 mM phosphate buffer (pH 7.4). The radioactivity of the membrane fractions was measured with a liquid scintillation analyzer (2900TR, Packard). The concentration (IC50) of the test compound required for 50% inhibition of the binding of LPA1 and [^35S]GTPγS was determined by non-linear regression analysis using EXSAS (Arm Systex).

T1 sequence (Q92633 whole entry): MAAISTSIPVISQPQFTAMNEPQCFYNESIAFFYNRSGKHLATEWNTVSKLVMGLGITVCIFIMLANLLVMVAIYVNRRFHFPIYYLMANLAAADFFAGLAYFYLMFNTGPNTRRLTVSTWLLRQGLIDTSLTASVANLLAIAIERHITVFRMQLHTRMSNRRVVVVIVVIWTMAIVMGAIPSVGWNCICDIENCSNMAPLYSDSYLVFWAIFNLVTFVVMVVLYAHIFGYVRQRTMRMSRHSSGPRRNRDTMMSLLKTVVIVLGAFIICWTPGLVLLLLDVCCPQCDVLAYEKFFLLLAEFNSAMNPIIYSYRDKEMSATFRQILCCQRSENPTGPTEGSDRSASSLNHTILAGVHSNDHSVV

pIC50 (human LPA1)	SMILES	NAFLD Activity score, compound administered group (STAM mice (NASH models))	reduction in NAFLD activity score (statistical significance) (STAM mice (NASH models))
	COc1cc(-c2sc(Cl)cc2NC(=O)O[C@H](C)c2cc(F)ccc2F)ccc1-c1ccc(C2(C(=O)O)CC2)cc1 [Production Example 9, (R)-1-{4′-[5-chloro-3-({[1-(2,5-difluorophenyl)ethoxy]carbonyl}amino)thiophen-2-yl]-2′-methoxy-[1,1′-biphenyl]-4-yl}cyclopropanecarboxylic acid]	3.1 ± 1.4	significant (p<0.05) reduction
≥ 7.00	COc1cc(-c2sc(F)cc2NC(=O)O[C@H](C)c2ccccc2Cl)ccc1-c1ccc(C2(C(=O)O)CC2)cc1 [Production Example 8, (R)-1-{4′-[3-({[1-(2-chloropheny)ethoxy]carbonyl}amino)-5-fluorothiophen-2-yl]-2′-methoxy-[1,1′-biphenyl]-4-yl}cyclopropanecarboxylic acid]		
≥ 7.00	COc1cc(-c2sc(Cl)cc2NC(=O)O[C@H](C)c2ccccc2)ccc1-c1ccc(C2(C(=O)O)CC2)cc1 [Production Example 6, (R)-1-[4′-(5-chloro-3-{[(1-phenylethoxy)carbonyl]amino}thiophen-2-yl)-2′-methoxy-[1,1′-biphenyl]-4-yl]cyclopropanecarboxylic acid]	2.8 ± 1.0	significant (p<0.05) reduction
≥ 7.00	Cc1cscc1[C@@H](C)OC(=O)Nc1cc(F)sc1-c1ccc(-c2ccc(C3(C(=O)O)CC3)cc2)cc1 [Production Example 7, (R)-1-{4′-[5-fluoro-3-({[1-(4-methylthiophen-3-yl)ethoxy]carbonyl}amino)thiophen-2-yl]-[1,1′-biphenyl]-4-yl}cyclopropanecarboxylic acid]		
